Measurements as given in paper doi:10.1101/2020.05.25.114512v1 (bioRxiv, 2020).
≈ marks a conversion by molar mass, not a printed value.

How the values were obtained:
[1] = test system: neurotensin; settings: ref [25]; cited from earlier work
[2] = Cytotoxic activity; type: cell-based; settings: human, KB-3-1 cells (cervix carcinoma)
[3] = test system: E. coli TolC mutants; assay: Bacterial cell entry test, LC-MS analysis; type: cell-based, Escherichia coli; settings: concluded from fluorescence microscopy and LC-MS analysis
[4] = Cytotoxic activity; type: cell-based; settings: human, HCT-116 cells (colon carcinoma)
[5] = test system: pancreatic elastase; settings: previously listed in the literature; cited from earlier work
[6] = test system: pyocyanin produced by Pseudomonas aeruginosa strain PA14; assay: Pyocyanin assay; type: cell-based; settings: administered to Pseudomonas aeruginosa

Row | Compound | IC50, neurotensin inhibitor [1] | IC50 at 5 days [2] | cell entry capabilities for E. coli (authors' conclusion, in words) [3] | IC50 at 5 days [4] | inhibition of pancreatic elastase (in words) [5] | inhibition of pyocyanin production (in words) [6]
1 | YIYY (bicyclic or more) [cittilin B] | 30 µg/mL |  |  |  |  | 
2 | CC[C@H](C)[C@@H]1NC(=O)[C@@H](N)Cc2ccc(OC)c(c2)-c2cc3cc(c2O)Oc2ccc(cc2)C[C@@H](C(=O)O)NC(=O)[C@H](C3)NC1=O [cittilin A] |  | 74.8 µg/mL (≈ 119 µM) | poor cell entry capabilities | 110 µg/mL (≈ 175 µM) | moderate inhibitor | no inhibition of pyocyanin production
